Data taken from ChEMBL document CHEMBL4229547, “Design, synthesis and biological mechanisms research on 1,2,3-triazole derivatives of Jiyuan Oridonin A” (Bioorg Med Chem, 2018).

Legend:
Format in all cases: functional, cell-based
[1] = test system: EC9706; test: Antiproliferative activity against human EC9706 cells after 48 hrs by MTT assay; conditions: EC9706, 48 h
[2] = test system: MGC-803; test: Antiproliferative activity against human MGC803 cells after 48 hrs by MTT assay; conditions: MGC-803, 48 h
[3] = test system: ECa-109 cell line; test: Antiproliferative activity against human ECA109 cells after 48 hrs by MTT assay; conditions: ECa-109, 48 h
[4] = test system: SMMC-7721; test: Antiproliferative activity against human SMMC7721 cells after 48 hrs by MTT assay; conditions: SMMC-7721, 48 h
[5] = test system: PC-3; test: Antiproliferative activity against human PC3 cells after 48 hrs by MTT assay; conditions: PC-3, 48 h
[6] = test system: MCF7; test: Antiproliferative activity against human MCF7 cells after 48 hrs by MTT assay; conditions: MCF7, 48 h
[7] = test system: HGC-27; test: Antiproliferative activity against human HGC27 cells after 48 hrs by MTT assay; conditions: HGC-27, 48 h

| Structure (SMILES) | IC50 [1] | IC50 [2] | IC50 [3] | IC50 [4] | IC50 [5] | IC50 [6] | IC50 [7] |
| --- | --- | --- | --- | --- | --- | --- | --- |
| C=C1C(=O)[C@]23[C@H](O)[C@H]1C[C@H](O)[C@H]2[C@]12CCCC(C)(C)[C@H]1C[C@H]3O[C@@H]2OCCn1cc(C2CC2)nn1 | 11.4 µM | 4.58 µM | 4.3 µM | 9.66 µM | 3.79 µM | 11 µM | – |
| C=C1C(=O)[C@]23[C@H](O)[C@H]1C[C@H](O)[C@H]2[C@]12CCCC(C)(C)[C@H]1C[C@H]3O[C@@H]2OCCc1cn(Cc2ccccc2)nn1 | 7.54 µM | – | 3.51 µM | 5.79 µM | – | 9.45 µM | – |
| C=C1C(=O)[C@]23[C@H](O)[C@H]1CC[C@H]2[C@@]12CO[C@]3(O)[C@@H](O)[C@@H]1C(C)(C)CC[C@@H]2O [ORIDONIN] | 38.4 µM | 33.1 µM | 31.8 µM | 54 µM | 27.6 µM | 74.2 µM | 32 µM |
| C=C1C(=O)[C@]23[C@H](O)[C@H]1C[C@H](O)[C@H]2[C@]12CCCC(C)(C)[C@H]1C[C@H]3O[C@@H]2OCCc1cn(Cc2ccc(F)cc2)nn1 | 4.5 µM | – | 3.68 µM | 5.88 µM | – | 6.62 µM | – |
| C=C1C(=O)[C@]23[C@H](O)[C@H]1C[C@H](O)[C@H]2[C@]12CCCC(C)(C)[C@H]1C[C@H]3O[C@@H]2OCCc1cn(Cc2ccc(OC)cc2)nn1 | 4.67 µM | 4.79 µM | 2.57 µM | 4.81 µM | 4.95 µM | 7.81 µM | – |
| C=C1C(=O)[C@]23[C@H](O)[C@H]1C[C@H](O)[C@H]2[C@]12CCCC(C)(C)[C@H]1C[C@H]3O[C@H]2O | 22.5 µM | 14.7 µM | 20.7 µM | 20.2 µM | 15 µM | 22.9 µM | – |
| C=C1C(=O)[C@]23[C@H](O)[C@H]1C[C@H](O)[C@H]2[C@]12CCCC(C)(C)[C@H]1C[C@H]3O[C@@H]2OCCn1cc(CCCC)nn1 | 8.29 µM | – | 4.45 µM | 11 µM | – | 13.4 µM | – |
| C=C1C(=O)[C@]23[C@H](O)[C@H]1C[C@H](O)[C@H]2[C@]12CCCC(C)(C)[C@H]1C[C@H]3O[C@@H]2OCCn1cc(-c2ccccc2)nn1 | 5.32 µM | 9.62 µM | 4.26 µM | 6.07 µM | 11.2 µM | 8.95 µM | – |
| C=C1C(=O)[C@]23[C@H](O)[C@H]1C[C@H](O)[C@H]2[C@]12CCCC(C)(C)[C@H]1C[C@H]3O[C@@H]2OCCc1cn(Cc2cc(OC)c(OC)c(OC)c2)nn1 | 9.5 µM | – | 4.51 µM | 9.03 µM | – | 8.79 µM | – |
| C=C1C(=O)[C@]23[C@H](O)[C@H]1C[C@H](O)[C@H]2[C@]12CCCC(C)(C)[C@H]1C[C@H]3O[C@@H]2OCCc1cn(Cc2ccc(Cl)c(Cl)c2)nn1 | 4.21 µM | – | 2.58 µM | 3.76 µM | – | 6.85 µM | – |
| C#CCO[C@H]1O[C@@H]2C[C@@H]3C(C)(C)CCC[C@]13[C@@H]1[C@@H](O)C[C@H]3C(=C)C(=O)[C@@]21[C@@H]3O | 7.87 µM | 3.77 µM | 10.8 µM | 15.3 µM | 3.92 µM | 14.6 µM | – |
| C=C1C(=O)[C@]23[C@H](O)[C@H]1C[C@H](O)[C@H]2[C@]12CCCC(C)(C)[C@H]1C[C@H]3OC2OCCN=[N+]=[N-] (single isomer, unassigned) | 8.71 µM | 11.9 µM | 6.08 µM | 10 µM | 12.3 µM | 1.6 µM | – |
| C=C1C(=O)[C@]23[C@H](O)[C@H]1C[C@H](O)[C@H]2[C@]12CCCC(C)(C)[C@H]1C[C@H]3O[C@@H]2OCCc1cn(Cc2ccc(C)cc2)nn1 | 6.1 µM | 3.89 µM | 2.12 µM | 5.68 µM | 4.9 µM | 7.86 µM | – |
| C=C1C(=O)[C@]23[C@H](O)[C@H]1C[C@H](O)[C@H]2[C@]12CCCC(C)(C)[C@H]1C[C@H]3O[C@@H]2OCCc1cn(Cc2ccc([N+](=O)[O-])cc2)nn1 | 7.78 µM | – | 4.13 µM | 3.8 µM | – | 6.45 µM | – |
